The record followed here is US4216314A, “N-Aryloxypropyl-N'-dioxopyrimidyl-α,ω-alkylenediamines” (Cassella Farbwerke Mainkur Aktiengesellschaft, priority 1977, dated 1980).

SMILES strings stand for the structures. Where only a bound is given, the exact number is not on record here.

Experiment [1] deals with T1, β1 -receptors of the heart (Canis lupus familiaris, UniProt P79148).
T1 construct: from tissue; host or cells: heart (left ventricle) of anaesthetised mongrel dogs, in vivo
In words: inhibition of isoproterenol effect on dp/dtmax of left ventricle (β1-receptors of the heart) in anaesthetised dogs. The class given is in vivo, mongrel dogs. The settings on record: for ED50: dog, cumulative intravenous dose for 50% inhibition of effect of isoproterenol (0.5 gamma/kg i.v.) on dp/dtmax, chloralose/urethane/morphine anaesthesia, read-out: ED50 β1 mg/kg intravenously; for ratio of the doses, ED50 β2 / ED50 β1 (head is drawing 43): number significantly >1 indicates cardioselective action. As for the experimental part:
(§1) Pharmacological tests for activity towards β1 -receptors and β2 -receptors were carried out on mongrel dogs of both sexes under chloralose/urethane/morphine anaesthesia. The pressure in the left ventricle was recorded by means of a catheter tip manometer (micro-tip pressure transducer, MILLAR Instruments, Houston, Texas). The pressure signal was continuously differentiated by means of an analog computer and recorded (BRUSH Instruments, Cleveland, Ohio). The flow of blood through an arteria femoralis was measured and recorded by means of an electromagnetic flow meter (Messrs. STATHAM, Model M4000). Injection catheters were fastened to a peripheral vein and into a branch of the a. femoralis.
(§2) Isoproterenol was injected intravenously (0.5 gamma/kg) and intraarterially (0.05 gamma/kg). The effect of the isoproterenol on the dp/dtmax in the case of intravenous administration was considered to be an expression of the stimulation of the β1 -receptors of the heart. The change in the flow of blood through the arteria femoralis in the case of intraarterial injection of isoproterenol was considered to be an expression of the stimulation of the peripheral β2 -receptors (D-DUNLOP and R. G. SHANKS, "Selective Blockade of Adrenoceptive beta-Receptors in the Heart", Br. J. Pharmac. Chemother., 32, 201 to 218, 1968). The percentage inhibition of the effects of isoproterenol with respect to the cumulative doses of the test substance was determined. The cumulative doses of the test substance which leads to 50% inhibition of the isoproterenol effects (=ED50) was determined by means of a modified probit analysis. Substances which inhibit the isoproterenol effects on the dp/dtmax (β1) at a low dose and only decrease the change in the flow of blood through the a. femoralis at higher doses (β2) preferentially act on the β1 -receptors of the heart. The ratio of the doses. [formula] should be as high as possible.

Another experiment concerns the target T2, peripheral β2 -receptors (Canis lupus familiaris, UniProt P54833).
T2 construct: from tissue; host or cells: femoral arterial bed of anaesthetised mongrel dogs, in vivo
In words: inhibition of isoproterenol effect on blood flow through arteria femoralis (peripheral β2-receptors) in anaesthetised dogs. The format is in vivo, mongrel dogs. The settings on record: dog; cumulative intravenous dose for 50% inhibition of effect of isoproterenol (0.05 gamma/kg intraarterially) on blood flow through a. femoralis; chloralose/urethane/morphine anaesthesia; read-out: ED50 β2 mg/kg intraveneously. On the procedure: as §1, §2

T1 sequence (P79148 whole entry): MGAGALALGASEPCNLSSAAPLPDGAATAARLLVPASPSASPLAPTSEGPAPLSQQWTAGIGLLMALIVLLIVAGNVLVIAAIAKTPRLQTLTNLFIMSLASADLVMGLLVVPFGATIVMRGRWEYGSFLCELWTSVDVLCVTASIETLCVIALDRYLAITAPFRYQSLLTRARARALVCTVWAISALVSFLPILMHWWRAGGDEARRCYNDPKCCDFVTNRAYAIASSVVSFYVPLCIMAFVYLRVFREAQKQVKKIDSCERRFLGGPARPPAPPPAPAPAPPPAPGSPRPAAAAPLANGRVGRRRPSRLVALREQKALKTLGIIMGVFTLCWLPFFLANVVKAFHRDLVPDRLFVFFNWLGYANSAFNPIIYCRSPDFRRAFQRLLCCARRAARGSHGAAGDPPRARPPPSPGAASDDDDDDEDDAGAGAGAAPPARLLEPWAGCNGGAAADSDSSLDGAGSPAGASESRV
T2 sequence (P54833 whole entry): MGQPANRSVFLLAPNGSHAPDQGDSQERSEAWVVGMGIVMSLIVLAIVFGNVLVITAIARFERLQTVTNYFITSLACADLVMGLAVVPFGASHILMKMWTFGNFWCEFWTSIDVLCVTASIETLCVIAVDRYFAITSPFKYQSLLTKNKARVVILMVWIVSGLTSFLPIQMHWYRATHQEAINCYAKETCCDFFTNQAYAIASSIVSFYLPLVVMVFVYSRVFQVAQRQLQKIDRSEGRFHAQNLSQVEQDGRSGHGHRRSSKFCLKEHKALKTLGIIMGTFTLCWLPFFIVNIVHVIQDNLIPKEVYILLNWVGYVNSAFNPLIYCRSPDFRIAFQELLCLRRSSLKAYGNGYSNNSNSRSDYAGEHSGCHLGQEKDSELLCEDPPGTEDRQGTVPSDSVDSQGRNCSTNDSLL

With `COc1ccc(OCC(O)CNCCNc2cc(=O)n(C)c(=O)n2C)cc1` (stereo not drawn) [Example 11], in experiment [1], the ED50 was found to be 0.0157 mg/kg and the “ratio of the doses, ED50 β2 / ED50 β1 (head is drawing 43)” value is 341. In addition, at peripheral β2 -receptors, the ED50 worked out at 5.36 mg/kg.
The like results for `CCCOc1ccc(OCC(O)CNCCNc2cc(=O)n(C)c(=O)n2C)cc1` (stereo not drawn) [Example 12] were, in that order, 0.0061 mg/kg, > 1,000 and greater than 7.3 mg/kg.
The corresponding values for `CCCCOc1ccc(OCC(O)CNCCNc2cc(=O)n(C)c(=O)n2C)cc1` (stereo not drawn) [Example 13] are 0.0096 mg/kg, > 1,000 and greater than 9.6 mg/kg.
The like results for `Cn1c(NCCNCC(O)COc2ccc(OCCO)cc2)cc(=O)n(C)c1=O` (stereo not drawn) [Example 14] were, in that order, 0.0291 mg/kg, 303 and 8.83 mg/kg.
On to `Cn1c(NCCNCC(O)COc2ccc(OCc3ccccc3)cc2)cc(=O)n(C)c1=O` (stereo not drawn) [Example 19], for which, in experiment [1], the ED50 amounted to 0.0139 mg/kg and the “ratio of the doses, ED50 β2 / ED50 β1 (head is drawing 43)” value was 322. For the same compound, the ED50 on peripheral β2 -receptors came to 4.48 mg/kg.
